Results taken from patent US4183931A, “2-Ketoalkyl-4(3H)-quinazolinones” (Research Corporation, priority 1977, dated 1980).

Columns and labels:
[1] = literature; cited from earlier work
[2] = NINCDS primary evaluation, overall classification; format: in vivo, mice; conditions: primary evaluation
Protocol: (§1) 1. Neurological Activity Tests. The biological testing program is designed to evaluate the following four aspects of drug action: (1) the existence and specificity of anticonvulsant activity; (2) the toxicity, particularly to the central nervous system; and, if the results of (1) and (2) are favorable, (3) the potency and protective index, a comparison between toxic and effective dose and (4) the time course of activity. Compounds were evaluated for anticonvulsant activity in two seizure models, the maximal electroshock seizure (MES) test and the subcutaneous pentylenetetrazol (Metrazol) seizure threshold (scMet) test.
(§2) Specific anticonvulsant evaluations performed by NINCDS using MES, scMet and Rotorod assays are presented in Tables III & IV for fourteen new compounds as well as several known compounds. Table III centers attention on 2-substituted-3-o-tolyl-4-(3H)-quinazolinones while Table IV includes the findings for various other 2,3-disubstituted-4(3H)-quinazolinones. As described earlier, the MES, scMet and Rotorod tests were performed one-half hour and four hours after administration of each compound. The tables identify the dosage level that elicited a positive result, such as protection against MES and scMet induced seizures, or loss of balance on the rotorod.

[3] = NINCDS rotorod ataxia test (minimal neurotoxicity); format: in vivo, mice
Protocol: as §1
Central nervous system toxicity was evaluated in the rotorod ataxia test. This test is designed to detect minimal neurotoxicity. The animal is placed on a 1-inch diameter knurled plastic rod rotating at 6 rpm. Normal mice can remain indefinitely on a rod rotating at this speed. Neurological deficit is defined as the failure of the animal to remain on the rod for at least 1 minute. This test has a clear end-point, is quantifiable and correlates well with the clinical assessment of minimal toxicity.
as §2
In the Secondary Evaluation, median effective doses (ED50) are determined in the MES, scMet and Rotorod assays using the procedures defined in Pharmacology, 95, 99-113 (1949). In addition, each compound's anticonvulsant activity and neurotoxicity over time are determined by measuring the effect of an intraperitoneally administered estimated median effective dose on maximal electroshock seizures and rotorod performance at intervals of 1/2, 1, 2, 3, 4, 6 and 8 hours.
(§3) Separate groups of animals are used for each time period. The times of peak toxic and anticonvulsant effect are taken from the resulting graph of percent of animals responding vs. time, and the determinations of median effective doses are performed at those times.

[4] = literature; cited from earlier work; remark: listed apart in the source
[5] = NINCDS Maximal Electroshock Seizure Test (MES); format: in vivo, mice; conditions: for minimal effective dose: read-out: MES: dosage level that elicited protection
Protocol: (§4) 1. Neurological Activity Tests. […] Compounds were evaluated for anticonvulsant activity in two seizure models, the maximal electroshock seizure (MES) test and the subcutaneous pentylenetetrazol (Metrazol) seizure threshold (scMet) test.
The Maximal Electroshock Seizure Test was performed according to the method described by Swinyard and coworkers,* wherein a drop of 0.9% saline is instilled in each eye prior to application of corneal electrodes. Seizures are elicited with a 50 Hz alternating current of 50 mA (5 to 7 times that necessary to elicit minimal electroshock seizures) delivered for 0.2 sec via corneal electrodes. This stimulus will produce a maximal seizure in all normal mice. The maximal seizure typically consists of a short period of initial tonic flexion and a prolonged period of hind limb tonic extension, followed by terminal clonus. The seizure lasts about 22 seconds. Abolition of the hind limb tonic extensor component of the seizure is defined as protection and indicates anticonvulsant activity in the test compound.
(§5) The ability of a compound to prevent maximal electroshock seizures is believed to correlate with its ability to prevent the spread of seizure discharge through neural tissue. Activity against maximal electroshock seizures is thought to indicate potential efficacy in the treatment of major motor (grand mal) seizures. […] Selective action in the test is believed to indicate potential efficacy against absence (petit mal) seizures.
(§6) As described earlier, the MES, scMet and Rotorod tests were performed one-half hour and four hours after administration of each compound.
(§7) In the Secondary Evaluation, median effective doses (ED50) are determined in the MES, scMet and Rotorod assays using the procedures defined in Pharmacology, 95, 99-113 (1949).
as §3

[6] = NINCDS Subcutaneous Pentylenetetrazol (Metrazol) Seizure Threshold Test (scMet); format: in vivo, mice; conditions: for minimal effective dose: sc, read-out: scMet: dosage level that elicited protection
Protocol: as §4
Subcutaneous Pentylenetetrazol (Metrazol) Seizure Threshold Test (scMet) produces threshold (clonic) seizures. Pentylenetetrazol is administered subcutaneously as a threshold 0.5% solution (in 0.9% sodium chloride) in a loose fold of skin on the back of the neck in a dose of 85 mg/kg. […] Metrazol is given 10 minutes before the beginning of the test to allow for the delay in onset of Metrazol action. The animal is observed for 30 minutes. Failure to observe even a threshold seizure (a single episode of clonic spasms at least 5 seconds in duration) is defined as protection and indicates anticonvulsant activity in the test compound. These two methods of seizure provocation reliably elicit well-characterizied seizure phenomena.
as §5, §6, §7, §3

[7] = literature, mice; cited from earlier work
[8] = NPP lethality (estimated LD50); conditions: mouse, in vivo, ip
Protocol: (§8) The procedures for the determination of a neuropharmacological profile involved white male mice of the Carworth Farm Strain CF-1 weighing 18 to 22 grams. […] Intraperitoneal injections were administered in logarithmic progression and sequentially. The dose levels employed routinely were 10, 30, 100 and 300 mg/kg, using four male mice at each dose level. Since this test was conducted in a sequential manner, the first does administered was at 300 mg/kg. […] Approximately thirty-eight signs and symptoms of pharmacological activity can be identified.
(§9) The animals were observed continously for one hour and, if no signs of pharmacological or toxicological activity were present at the end of the first hour, they were intermittently checked for activity every fifteen minutes thereafter for two consecutive hours. […] The observation period began immediately following the injection and the animals were then continuously observed for three hours and intermittently checked thereafter for forty-eight hours. The animals were observed and signs and symptoms of pharmacological activity were recorded continuously until no further symptoms developed and until the symptoms that appeared were no longer present. […] In such instances, the animals were observed beyond this period until they returned to normal. Routinely, the number of animals alive at the end of the forty-eight hour observation period was recorded and the LD50 estimated.
(§10) Scores for behavioral symptoms, including depression, righting reflex and ataxia, are the actual numbers reported. Protection against MES is reported as a percentage. Since four animals were involved in this test, the findings are 0% for none protected, 25% for one out of four, etc. […] In order to maintain reasonable uniformity in the reporting of results, each entry corresponds to a dosage level of 100 mg/kg. Any variations from that dosage are indicated.

[9] = NPP maximal electroshock seizure (MES) protection; format: in vivo, white male mice of the Carworth Farm Strain CF-1; conditions: Mus musculus, ip; conducted at 30 mg/kg i.p.
Protocol: as §8
(§11) Since this is a general CNS screening procedure, only peak effects were recorded. Certain measures of behavior and neurological deficit were scored in terms of intensity of effect, while most others were determined on an all or none basis. Thus, in scoring measures which were normally present, e.g., spontaneous activity and skin color, an increase in score from 4 to 8 was used to denote stimulation or enhancement of skin color, whereas a decrease in score from 4 to 0 indicated depression or cyanosis. For scoring measures normally absent, e.g., depression, righting reflex and ataxia, activity was reflected as an increase in score from 0 to 8. The 0 to 8 scale was rounded off so that the actual ratings are only 0, 2, 4, 6 and 8. The compounds were also evaluated for anticonvulsant activity by using the maximal electroshock seizure (MES) test. In the MES study, four mice were dosed intraperitoneally at 100 mg/kg and challenged thirty minutes later with 50 mA, 0.2 second duration of electroshock. A protection ratio (number of mice protected from tonic extension .div. number of mice tested) was then established.
as §10

[10] = Neuropharmacological Profile (NPP): general CNS observational screen (depression, righting reflex, ataxia); conditions: at 30 mg/kg (value in parentheses), i.p., mice, score 0-8
Protocol: Representative compounds according to the present invention were tested for central nervous system activity by Pharmakon Laboratories of Scranton, Pennsylvania. The battery of general observational procedures used is referred to herein as a Neuropharmacological Profile (NPP). Additionally, representative compounds were tested in the Anticonvulsant Screening Project of the National Institutes of Neurological and Communicative Disorders and Stroke (NINCDS) at the University of Utah under the direction of Dr. Ewart A. Swinyard.
as §8, §9
The animals are free to move about for evaluation of spatial orientation, alertness and spontaneous motor activity.
as §11
At the termination of the test, the results were recorded and tabulated.
as §10

[11] = literature; cited from earlier work; remark: listed apart in the source
[12] = after 4 hr (value in parentheses)
[13] = Mus musculus, ip, after 4 hr (value in parentheses)
[14] = Mus musculus, after 4 hr (value in parentheses)
[15] = Mus musculus, ip, secondary evaluation, at time of peak effect

Which “protection against maximal electro-shock seizures (in words)” value [1] does the source give for `CCC1(c2ccccc2)C(=O)NC(=O)NC1=O` [phenobartital] here?
The value was “better protector against maximal electro-shock seizures (MES) then methaqualone”.

For `Cc1nc2ccccc2c(=O)n1-c1ccccc1Cl` [mecloqualone, 2-methyl-3-o-chlorophenyl-4(3H)-quinazolinone, reference compound], which “toxicity remark (footnote a to NINCDS classification)” value [2] is on record?
The value was “Extremely toxic”.

What about the “Rotorod: dosage level that elicited loss of balance” value ([3]; after 0.5 hr) of the same compound?
The value was 30 mg/kg.

And the “Rotorod: dosage level that elicited loss of balance” value [3, 12]?
The value was 100 mg/kg.

And the “anticonvulsant activity (in words)” value [4]?
The value was “better anticonvulsant agent than methaqualone”.

And the minimal effective dose [5, 13]?
Its minimal effective dose is 300 mg/kg.

And the minimal effective dose ([6]; Mus musculus, after 0.5 hr)?
The minimal effective dose was 30 mg/kg.

What about the minimal effective dose [6, 14] of the same compound?
The minimal effective dose was 100 mg/kg.

And the “effectiveness in protection against scMet induced seizures, comparison methaqualone/mecloqualone” value ([6]; primary evaluation)?
The value was “more effective in protection against scMet induced seizures”.

For `Cc1ccccc1-n1c(C)nc2ccccc2c1=O` [methaqualone, 2-methyl-3-o-tolyl-4(3H)-quinazolinone, reference compound], which “Rotorod: dosage level that elicited loss of balance” value ([3]; after 0.5 hr) is on record?
The value was 100 mg/kg.

What about the “Rotorod: dosage level that elicited loss of balance” value [3, 12] of the same compound?
Its value is 300 mg/kg.

And the TD50 ([3]; mouse, in vivo, ip, secondary evaluation, at time of peak effect)?
Its TD50 is 55 mg/kg.

And the “prevention of pentylenetetrazol induced convulsive seizures (in words)” value [7]?
The value was “superior to sodium phenobarbitone”.

And the minimal effective dose ([5]; Mus musculus, ip, after 0.5 hr)?
Its minimal effective dose is 100 mg/kg.

What about the minimal effective dose [5, 13] of the same compound?
Its minimal effective dose is 300 mg/kg.

And the ED50 [5, 15]?
The ED50 was 52 mg/kg.

And the “activity in the MES test, comparison methaqualone/mecloqualone” value ([5]; primary evaluation)?
The value was “more active in the MES test”.

And the LD50 at 48 h [8]?
The LD50 at 48 h was over 562 mg/kg.

What about the responders at 30 mg/kg [9] of the same compound?
Its responders at 30 mg/kg is 0%.

And the ED50 [6, 15]?
The ED50 was 33.5 mg/kg.

What about the minimal effective dose ([6]; Mus musculus, after 0.5 hr) of the same compound?
The minimal effective dose was 100 mg/kg.

What about the minimal effective dose [6, 14] of the same compound?
The minimal effective dose was 300 mg/kg.

What about the “CNS Depression” value [10] of the same compound?
Its value is 8.

And the “sedative-hypnotic / hypnotic / depressant activity (in words)” value [11]?
The value was “comparable to short-acting barbiturates in terms of sedative-hypnotic activity”.
